The supplement of paper PMC10307832

Key:
Experiment in all cases: relative viability (nuclei count vs DMSO), 5 days (fraction); higher = more cells survive
A-427 = system: A-427
Outline: (§1)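 Values are medians from duplicate plates. Each reflects relative viability, defined as the nuclei count of treated wells over that of vehicle wells. Lung cancer cell lines in 1536-well plates were pin-tool dosed one day after seeding with one drug alone or with a fixed anchor-drug dose plus five library-drug doses (not always all listed) in √10 steps, then fixed, stained and imaged at 4× after 5 days.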

ABC-1 = system: ABC-1
Outline: as §1

COR-L23 = system: COR-L23
Outline: as §1

ChaGo-K-1 = system: ChaGo-K-1
Outline: as §1

EMC-BAC-2 = system: EMC-BAC-2
Outline: as §1

HARA = system: HARA
Outline: as §1

HCC-15 = system: HCC-15
Outline: as §1

HCC-366 = system: HCC-366
Outline: as §1

HCC-78 = system: HCC-78
Outline: as §1

LC-2-ad = system: LC-2-ad
Outline: as §1

NCI-H1734 = system: NCI-H1734
Outline: as §1

NCI-H1993 = system: NCI-H1993
Outline: as §1

NCI-H2009 = system: NCI-H2009
Outline: as §1

NCI-H2023 = system: NCI-H2023
Outline: as §1

NCI-H2126 = system: NCI-H2126
Outline: as §1

NCI-H2228 = system: NCI-H2228
Outline: as §1

NCI-H23 = system: NCI-H23
Outline: as §1

NCI-H2405 = system: NCI-H2405
Outline: as §1

NCI-H838 = system: NCI-H838
Outline: as §1

SK-LU-1 = system: SK-LU-1
Outline: as §1

UMC-11 = system: UMC-11
Outline: as §1

**Q.** Which results are given for `C=C1C(=O)O[C@@H](CCCCCCCC)[C@@H]1C(=O)O` [C-75] + CC(C)C[C@H](NC(=O)[C@H](Cc1ccccc1)NC(=O)c1cnccn1)B(O)O [Bortezomib] (partner 0.002 µM)?
**A.** relative viability (A-427; first compound 0.08 µM): 1.01; relative viability (A-427; first compound 0.253 µM): 0.988; relative viability (A-427; first compound 0.8 µM): 1.02; relative viability (A-427; first compound 2.53 µM): 0.78; relative viability (A-427; first compound 8 µM): 1.12; relative viability (ABC-1; first compound 0.08 µM): 0.295; relative viability (ABC-1; first compound 0.253 µM): 0.314; relative viability (ABC-1; first compound 0.8 µM): 0.373; relative viability (ABC-1; first compound 2.53 µM): 0.178; relative viability (ABC-1; first compound 8 µM): 0.234; relative viability (COR-L23; first compound 0.08 µM): 0.953; relative viability (COR-L23; first compound 0.253 µM): 1.05; relative viability (COR-L23; first compound 0.8 µM): 0.946; relative viability (COR-L23; first compound 2.53 µM): 0.698; relative viability (COR-L23; first compound 8 µM): 0.818; relative viability (ChaGo-K-1; first compound 0.08 µM): 0.927; relative viability (ChaGo-K-1; first compound 0.253 µM): 0.944; relative viability (ChaGo-K-1; first compound 0.8 µM): 0.894; relative viability (ChaGo-K-1; first compound 2.53 µM): 0.872; relative viability (ChaGo-K-1; first compound 8 µM): 0.96; relative viability (EMC-BAC-2; first compound 0.08 µM): 1.1; relative viability (EMC-BAC-2; first compound 0.253 µM): 1.05; relative viability (EMC-BAC-2; first compound 0.8 µM): 1.11; relative viability (EMC-BAC-2; first compound 2.53 µM): 0.914; relative viability (EMC-BAC-2; first compound 8 µM): 1.13; relative viability (HARA; first compound 0.08 µM): 1.14; relative viability (HARA; first compound 0.253 µM): 1.22; relative viability (HARA; first compound 0.8 µM): 1.07; relative viability (HARA; first compound 8 µM): 1.26; relative viability (HCC-15; first compound 0.08 µM): 1.04; relative viability (HCC-15; first compound 0.253 µM): 1.05; relative viability (HCC-15; first compound 0.8 µM): 0.944; relative viability (HCC-15; first compound 2.53 µM): 0.943; relative viability (HCC-15; first compound 8 µM): 1.01; relative viability (HCC-366; first compound 0.08 µM): 1.07; relative viability (HCC-366; first compound 0.253 µM): 1.16; relative viability (HCC-366; first compound 0.8 µM): 0.973; relative viability (HCC-366; first compound 8 µM): 0.941; relative viability (HCC-78; first compound 0.08 µM): 0.507; relative viability (HCC-78; first compound 0.253 µM): 0.412; relative viability (HCC-78; first compound 0.8 µM): 0.386; relative viability (HCC-78; first compound 2.53 µM): 0.423; relative viability (HCC-78; first compound 8 µM): 0.472; relative viability (LC-2-ad; first compound 0.08 µM): 1.04; relative viability (LC-2-ad; first compound 0.253 µM): 0.97; relative viability (LC-2-ad; first compound 0.8 µM): 0.985; relative viability (LC-2-ad; first compound 8 µM): 0.961; relative viability (NCI-H1734; first compound 0.08 µM): 1.13; relative viability (NCI-H1734; first compound 0.253 µM): 0.934; relative viability (NCI-H1734; first compound 0.8 µM): 0.886; relative viability (NCI-H1734; first compound 2.53 µM): 0.812; relative viability (NCI-H1734; first compound 8 µM): 0.785; relative viability (NCI-H1993; first compound 0.08 µM): 0.951; relative viability (NCI-H1993; first compound 0.253 µM): 1.24; relative viability (NCI-H1993; first compound 0.8 µM): 1.08; relative viability (NCI-H1993; first compound 2.53 µM): 0.54; relative viability (NCI-H1993; first compound 8 µM): 1.09; relative viability (NCI-H2009; first compound 0.08 µM): 1.03; relative viability (NCI-H2009; first compound 0.253 µM): 1.06; relative viability (NCI-H2009; first compound 0.8 µM): 0.927; relative viability (NCI-H2009; first compound 2.53 µM): 0.826; relative viability (NCI-H2009; first compound 8 µM): 0.866; relative viability (NCI-H2023; first compound 0.08 µM): 1.04; relative viability (NCI-H2023; first compound 0.253 µM): 1.22; relative viability (NCI-H2023; first compound 0.8 µM): 0.902; relative viability (NCI-H2023; first compound 2.53 µM): 0.843; relative viability (NCI-H2023; first compound 8 µM): 0.835; relative viability (NCI-H2126; first compound 0.08 µM): 1.1; relative viability (NCI-H2126; first compound 0.253 µM): 1.29; relative viability (NCI-H2126; first compound 0.8 µM): 1.09; relative viability (NCI-H2126; first compound 2.53 µM): 0.886; relative viability (NCI-H2126; first compound 8 µM): 1.08; relative viability (NCI-H2228; first compound 0.08 µM): 0.836; relative viability (NCI-H2228; first compound 0.253 µM): 1.43; relative viability (NCI-H2228; first compound 0.8 µM): 0.8; relative viability (NCI-H2228; first compound 2.53 µM): 0.729; relative viability (NCI-H2228; first compound 8 µM): 0.746; relative viability (NCI-H23; first compound 0.08 µM): 0.953; relative viability (NCI-H23; first compound 0.253 µM): 1.07; relative viability (NCI-H23; first compound 0.8 µM): 0.962; relative viability (NCI-H23; first compound 2.53 µM): 0.865; relative viability (NCI-H23; first compound 8 µM): 0.696; relative viability (NCI-H2405; first compound 0.08 µM): 0.995; relative viability (NCI-H2405; first compound 0.253 µM): 0.773; relative viability (NCI-H2405; first compound 0.8 µM): 0.974; relative viability (NCI-H2405; first compound 2.53 µM): 0.673; relative viability (NCI-H2405; first compound 8 µM): 0.971; relative viability (NCI-H838; first compound 0.08 µM): 0.66; relative viability (NCI-H838; first compound 0.253 µM): 0.588; relative viability (NCI-H838; first compound 0.8 µM): 0.8; relative viability (NCI-H838; first compound 2.53 µM): 0.656; relative viability (NCI-H838; first compound 8 µM): 0.684; relative viability (SK-LU-1; first compound 0.08 µM): 1.24; relative viability (SK-LU-1; first compound 0.253 µM): 1.11; relative viability (SK-LU-1; first compound 0.8 µM): 0.836; relative viability (SK-LU-1; first compound 2.53 µM): 0.847; relative viability (SK-LU-1; first compound 8 µM): 0.658; relative viability (UMC-11; first compound 0.08 µM): 0.691; relative viability (UMC-11; first compound 0.253 µM): 0.761; relative viability (UMC-11; first compound 0.8 µM): 0.804; relative viability (UMC-11; first compound 2.53 µM): 0.575; relative viability (UMC-11; first compound 8 µM): 0.604
